Results published in the supplement of paper PMC5908809.

Experiments:
Assay in all cases: relative IC50 (inflection point of fitted viability curve, relative to fitted max inhibition); higher = less sensitive
Details in all cases: 72 h
[1] = system: normal primary NK cells, pool 1 (3 donors), resting (IL-2 0 ng/mL)
Procedure: (§1)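 Drug sensitivity and resistance testing: 5 concentrations over a 10,000-fold range, 72 h at 37 °C, viability by CellTiter-Glo normalised to DMSO and benzethonium chloride controls. IC50 is the inflection point of a logistic fit (min fixed at 0, max fitted), so it is relative to the fitted maximal inhibition. Kept only where fitted max inhibition is at least 50%.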

[2] = system: normal primary NK cells, pool 1 (3 donors) (IL-2 2.5 ng/mL)
Procedure: as §1

NKL (IL-2 2.5 ng/mL) = system: NKL (IL-2 2.5 ng/mL)
Procedure: as §1

NK-YS (IL-2 2.5 ng/mL) = system: NK-YS (IL-2 2.5 ng/mL)
Procedure: as §1

DERL-7 (IL-2 2.5 ng/mL) = system: DERL-7 (IL-2 2.5 ng/mL)
Procedure: as §1

NK-92 (IL-2 2.5 ng/mL) = system: NK-92 (IL-2 2.5 ng/mL)
Procedure: as §1

SNK-6 (IL-2 2.5 ng/mL) = system: SNK-6 (IL-2 2.5 ng/mL)
Procedure: as §1

KAI3 (IL-2 2.5 ng/mL) = system: KAI3 (IL-2 2.5 ng/mL)
Procedure: as §1

YT (IL-2 2.5 ng/mL) = system: YT (IL-2 2.5 ng/mL)
Procedure: as §1

[3] = system: normal primary NK cells, pool 3 (3 donors) (IL-2 2.5 ng/mL)
Procedure: as §1

IMC-1 (IL-2 20 ng/mL) = system: IMC-1 (IL-2 20 ng/mL)
Procedure: as §1

[4] = system: normal primary NK cells, pool 2 (3 donors) (IL-2 2.5 ng/mL)
Procedure: as §1

KHYG-1 (IL-2 2.5 ng/mL) = system: KHYG-1 (IL-2 2.5 ng/mL)
Procedure: as §1

SMILES	relative IC50 [1]	relative IC50 [2]	relative IC50 (NKL (IL-2 2.5 ng/mL))	relative IC50 (NK-YS (IL-2 2.5 ng/mL))	relative IC50 (DERL-7 (IL-2 2.5 ng/mL))	relative IC50 (NK-92 (IL-2 2.5 ng/mL))	relative IC50 (SNK-6 (IL-2 2.5 ng/mL))	relative IC50 (KAI3 (IL-2 2.5 ng/mL))	relative IC50 (YT (IL-2 2.5 ng/mL))	relative IC50 [3]	relative IC50 (IMC-1 (IL-2 20 ng/mL))	relative IC50 [4]	relative IC50 (KHYG-1 (IL-2 2.5 ng/mL))
Nc1ccccc1NC(=O)c1ccc(CNC(=O)OCc2cccnc2)cc1 [Entinostat]	582 nM	1330 nM	494 nM	1680 nM	1570 nM	479 nM	456 nM	399 nM	2460 nM	2910 nM	2330 nM	1530 nM	954 nM
COc1cccc2c1C(=O)c1c(O)c3c(c(O)c1C2=O)C[C@@](O)(C(=O)CO)C[C@@H]3O[C@H]1C[C@H](N)[C@H](O)[C@H](C)O1 [Doxorubicin]	59.9 nM	118 nM	4.41 nM	29.4 nM	32.3 nM	76.2 nM	41.2 nM	27.2 nM	69.6 nM	159 nM	45.3 nM	119 nM	56.7 nM
CC(C)C[C@H](NC(=O)[C@H](Cc1ccccc1)NC(=O)c1cnccn1)B(O)O [Bortezomib]	4.7 nM	3.62 nM	3.28 nM	3.04 nM	1.69 nM	3.32 nM	2.15 nM	3.07 nM	2.97 nM	3.62 nM	3.34 nM	3.28 nM	2.94 nM
C#Cc1cccc(Nc2ncnc3cc(OC)c(OCCCCCCC(=O)NO)cc23)c1 [CUDC-101]	198 nM	293 nM	412 nM	889 nM	177 nM	277 nM	276 nM	270 nM	267 nM	504 nM	1020 nM	347 nM	131 nM
Nc1nc(Cl)nc2c1ncn2[C@H]1C[C@H](O)[C@@H](CO)O1 [Cladribine]	7.37 nM	17.6 nM	34.2 nM	245 nM	49.7 nM	34.5 nM	49.2 nM	75.9 nM	235 nM	24.8 nM	86 nM	16.1 nM	30.5 nM
COCC[n+]1c2c(n(Cc3cnccn3)c1C)C(=O)c1ccccc1C2=O [YM155]	209 nM	691 nM	3.09 nM	15.5 nM	9.75 nM	17.8 nM	32.5 nM	10 nM	7.77 nM	1330 nM	< 1 nM	780 nM	17.1 nM
CC(C)(C)c1cnc(CSc2cnc(NC(=O)C3CCNCC3)s2)o1 [SNS-032]	53.4 nM	45.8 nM	22.6 nM	38.6 nM	61.3 nM	224 nM	74.8 nM	75.8 nM	84.1 nM	102 nM	36.2 nM	54.3 nM	277 nM
CC(C)c1cc(-c2n[nH]c(=O)n2-c2ccc3c(ccn3C)c2)c(O)cc1O [Ganetespib]	6.18 nM	5.67 nM	10.4 nM	13.1 nM	5.92 nM	16.8 nM	28.3 nM	11.8 nM	35.8 nM	9 nM	32.3 nM	5.41 nM	27.4 nM
C[C@@H](Oc1cc(-n2cnc3ccc(CN4CCN(C)CC4)cc32)sc1C(N)=O)c1ccccc1C(F)(F)F	374 nM	1780 nM	46 nM	90.5 nM	27.8 nM	7.34 nM	32.2 nM	187 nM	53 nM	2340 nM	37.1 nM	1640 nM	17.1 nM
C=CCNC1=C2C[C@@H](C)C[C@H](OC)[C@H](O)[C@@H](C)/C=C(\C)[C@H](OC(N)=O)[C@@H](OC)/C=C\C=C(/C)C(=O)NC(=CC1=O)C2=O [Tanespimycin]	145 nM	79.8 nM	59.1 nM	80.2 nM	126 nM	123 nM	106 nM	76.3 nM	248 nM	290 nM	291 nM	127 nM	247 nM
CCCCc1nc2cc(/C=C/C(=O)NO)ccc2n1CCN(CC)CC [Pracinostat]	93.7 nM	163 nM	76.5 nM	189 nM	168 nM	112 nM	207 nM	69 nM	213 nM	211 nM	233 nM	159 nM	149 nM
CCCCC(=O)OCC(=O)[C@]1(O)Cc2c(O)c3c(c(O)c2[C@@H](O[C@H]2C[C@H](NC(=O)C(F)(F)F)[C@H](O)[C@H](C)O2)C1)C(=O)c1c(OC)cccc1C3=O [Valrubicin]	179 nM	256 nM	6.61 nM	75.1 nM	63.4 nM	160 nM	88.1 nM	80.7 nM	235 nM	381 nM	96 nM	245 nM	164 nM
Cc1ccc(NC(=O)c2ccc(CN3CCN(C)CC3)cc2)cc1Nc1nc(-c2cccnc2)cs1 [Masitinib]	3340 nM	3230 nM	3390 nM	2010 nM	2000 nM	3690 nM	4530 nM	2970 nM	2490 nM	3230 nM	3320 nM	3500 nM	2690 nM
c1ccc2c(CCNc3ccc(Nc4ccncc4)cc3)c[nH]c2c1 [Serdemetan]	516 nM	914 nM	212 nM	880 nM	329 nM	1790 nM	2980 nM	436 nM	1820 nM	1140 nM	2580 nM	1260 nM	1670 nM
C=CCc1cccc(/C=N/NC(=O)CN2CCN(Cc3ccccc3)CC2)c1O [PAC-1]	3350 nM	2890 nM	591 nM	2740 nM	1980 nM	845 nM	996 nM	679 nM	1620 nM	1910 nM	3020 nM	2050 nM	543 nM
CN1CCC(CNc2ccc3ncc(-c4cccc(OC(F)(F)F)c4)n3n2)CC1 [SGI-1776]	1580 nM	2200 nM	1780 nM	2450 nM	1120 nM	2480 nM	3220 nM	2000 nM	2540 nM	2520 nM	3130 nM	1590 nM	2210 nM
